Assay results from US7074789B2, “Kinase inhibitors” (Amgen Inc., priority 1999, dated 2006).
Values joined by “and” are separate entries in the source; they are usually repeats but may differ in a detail not shown here. Equal values may be shown once.

What was measured:
Format in all cases: biochemical
[1] = molecular target: T1, Kdr (Homo sapiens, UniProt P35968); test: Kinase inhibition assay (33P transfer), Kdr; conditions: Table 3; read-out: KDR-1
T1 construct: Kinases are expressed as either kinase domains or full length constructs; made in house
T1 sequence (P35968 20-1356, species assumed): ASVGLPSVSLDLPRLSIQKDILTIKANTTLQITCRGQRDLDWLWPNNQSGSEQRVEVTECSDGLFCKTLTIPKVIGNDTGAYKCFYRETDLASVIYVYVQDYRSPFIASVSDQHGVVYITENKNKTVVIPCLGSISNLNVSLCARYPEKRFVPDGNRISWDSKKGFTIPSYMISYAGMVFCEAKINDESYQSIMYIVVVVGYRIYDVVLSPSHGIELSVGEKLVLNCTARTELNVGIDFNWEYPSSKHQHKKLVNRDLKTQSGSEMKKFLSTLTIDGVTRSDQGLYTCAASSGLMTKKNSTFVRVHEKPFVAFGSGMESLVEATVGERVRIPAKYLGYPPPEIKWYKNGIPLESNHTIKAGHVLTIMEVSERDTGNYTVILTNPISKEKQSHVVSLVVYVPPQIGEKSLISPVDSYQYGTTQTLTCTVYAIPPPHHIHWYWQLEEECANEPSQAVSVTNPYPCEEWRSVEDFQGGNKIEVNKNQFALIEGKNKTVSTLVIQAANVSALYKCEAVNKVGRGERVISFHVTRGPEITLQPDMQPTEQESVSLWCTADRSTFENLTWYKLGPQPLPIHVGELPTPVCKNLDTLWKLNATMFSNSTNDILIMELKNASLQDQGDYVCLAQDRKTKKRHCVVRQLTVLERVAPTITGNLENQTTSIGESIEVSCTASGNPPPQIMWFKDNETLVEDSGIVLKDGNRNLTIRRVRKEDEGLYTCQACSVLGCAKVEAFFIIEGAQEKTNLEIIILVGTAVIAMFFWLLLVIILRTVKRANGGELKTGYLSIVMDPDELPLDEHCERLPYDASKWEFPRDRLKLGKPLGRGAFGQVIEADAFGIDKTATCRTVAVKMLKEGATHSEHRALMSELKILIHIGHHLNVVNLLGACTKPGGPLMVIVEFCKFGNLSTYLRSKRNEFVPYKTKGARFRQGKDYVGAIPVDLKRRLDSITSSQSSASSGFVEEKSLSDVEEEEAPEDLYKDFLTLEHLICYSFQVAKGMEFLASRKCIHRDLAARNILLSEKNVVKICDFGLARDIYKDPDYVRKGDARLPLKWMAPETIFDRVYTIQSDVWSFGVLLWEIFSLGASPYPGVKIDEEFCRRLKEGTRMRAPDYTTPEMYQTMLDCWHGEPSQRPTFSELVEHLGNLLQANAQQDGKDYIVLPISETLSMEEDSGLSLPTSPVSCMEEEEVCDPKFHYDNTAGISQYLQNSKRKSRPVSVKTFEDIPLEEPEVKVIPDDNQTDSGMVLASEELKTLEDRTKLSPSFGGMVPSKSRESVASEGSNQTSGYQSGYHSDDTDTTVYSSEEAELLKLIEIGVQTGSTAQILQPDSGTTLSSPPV
How it was run: (§1)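 33P-ATP transfer to coated synthetic polymer substrates; acid wash (0.5% H3PO4), scintillant, liquid scintillation count. Enzymes: His- or GST-fusion kinases from E. coli or High Five insect cells.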

[2] = molecular target: T2, Tek (Homo sapiens, UniProt Q02763); test: Kinase inhibition assay (33P transfer), Tek; conditions: read-out: Tek-1
T2 construct: Kinases are expressed as either kinase domains or full length constructs; made in house
T2 sequence (Q02763 23-1124, species assumed): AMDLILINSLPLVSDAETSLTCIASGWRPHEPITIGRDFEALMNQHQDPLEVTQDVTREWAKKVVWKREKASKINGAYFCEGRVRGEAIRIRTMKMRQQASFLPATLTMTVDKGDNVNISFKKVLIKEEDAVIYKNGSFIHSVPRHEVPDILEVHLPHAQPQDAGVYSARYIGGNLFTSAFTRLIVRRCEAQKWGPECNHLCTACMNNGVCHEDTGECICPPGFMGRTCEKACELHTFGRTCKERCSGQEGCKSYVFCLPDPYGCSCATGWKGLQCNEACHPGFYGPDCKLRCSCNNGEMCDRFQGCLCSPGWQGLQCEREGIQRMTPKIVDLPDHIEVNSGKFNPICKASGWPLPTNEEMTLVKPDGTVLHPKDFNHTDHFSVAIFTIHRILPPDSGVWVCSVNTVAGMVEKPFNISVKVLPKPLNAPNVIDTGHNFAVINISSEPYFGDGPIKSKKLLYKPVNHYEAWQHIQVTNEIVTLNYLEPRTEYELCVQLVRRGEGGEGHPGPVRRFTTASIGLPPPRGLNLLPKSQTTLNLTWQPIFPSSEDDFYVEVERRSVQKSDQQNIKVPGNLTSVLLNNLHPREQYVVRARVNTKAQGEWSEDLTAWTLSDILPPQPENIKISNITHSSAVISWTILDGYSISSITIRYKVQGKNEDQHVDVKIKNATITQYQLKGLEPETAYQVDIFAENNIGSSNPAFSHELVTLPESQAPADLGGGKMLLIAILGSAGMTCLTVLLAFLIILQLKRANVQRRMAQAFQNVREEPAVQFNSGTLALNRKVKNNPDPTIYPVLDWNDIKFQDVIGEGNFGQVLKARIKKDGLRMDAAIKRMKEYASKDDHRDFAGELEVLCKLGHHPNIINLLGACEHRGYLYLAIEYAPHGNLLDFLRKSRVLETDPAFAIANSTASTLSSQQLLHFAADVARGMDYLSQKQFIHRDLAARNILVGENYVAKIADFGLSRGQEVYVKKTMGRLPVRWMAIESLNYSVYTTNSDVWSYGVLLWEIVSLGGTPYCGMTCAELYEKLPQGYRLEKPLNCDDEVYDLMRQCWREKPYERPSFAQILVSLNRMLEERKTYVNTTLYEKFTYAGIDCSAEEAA
How it was run: (§2)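 Each enzyme, purified to near homogeneity by affinity chromatography, was incubated with ATP carrying 33P and a substrate polymer fixed to the plate. Unbound label was removed with dilute phosphoric acid (0.5%) before adding scintillant and counting. Potency is given as the compound level cutting label uptake by 50%.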

[3] = molecular target: T3, IGFR-1 (Homo sapiens, UniProt P08069); test: Kinase inhibition assay (33P transfer), IGFR-1; conditions: Table 2, kinase inhibition class
T3 construct: Kinases are expressed as either kinase domains or full length constructs; made in house

[4] = molecular target: T4, Zap-70 (Homo sapiens, UniProt P43403); test: Kinase inhibition assay (33P transfer), Zap-70; conditions: Table 3; read-out: Zap-1
T4 construct: Kinases are expressed as either kinase domains or full length constructs; made in house
T4 sequence (P43403 1-619): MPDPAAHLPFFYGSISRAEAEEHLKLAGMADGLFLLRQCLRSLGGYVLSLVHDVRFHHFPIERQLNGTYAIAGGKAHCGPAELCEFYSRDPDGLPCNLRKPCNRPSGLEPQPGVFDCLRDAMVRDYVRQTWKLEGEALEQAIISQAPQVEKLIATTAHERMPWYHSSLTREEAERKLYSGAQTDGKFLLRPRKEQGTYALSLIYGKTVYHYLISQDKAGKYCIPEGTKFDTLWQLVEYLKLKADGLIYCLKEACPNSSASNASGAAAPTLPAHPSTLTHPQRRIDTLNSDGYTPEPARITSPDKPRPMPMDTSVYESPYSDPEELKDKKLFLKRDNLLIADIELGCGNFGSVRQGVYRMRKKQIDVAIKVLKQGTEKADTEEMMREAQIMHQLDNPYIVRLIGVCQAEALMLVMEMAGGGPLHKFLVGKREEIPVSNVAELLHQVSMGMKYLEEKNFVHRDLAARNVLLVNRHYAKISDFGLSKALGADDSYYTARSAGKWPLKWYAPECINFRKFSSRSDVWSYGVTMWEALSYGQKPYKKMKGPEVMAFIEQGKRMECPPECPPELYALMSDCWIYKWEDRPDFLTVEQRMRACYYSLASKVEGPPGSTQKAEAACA
How it was run: as §1

[5] = molecular target: T5, c-Met (Homo sapiens, UniProt P08581); test: Kinase inhibition assay (33P transfer), c-Met; conditions: Table 2, kinase inhibition class; read-out: Met-1
T5 construct: Kinases are expressed as either kinase domains or full length constructs; made in house
T5 sequence (P08581 25-1390): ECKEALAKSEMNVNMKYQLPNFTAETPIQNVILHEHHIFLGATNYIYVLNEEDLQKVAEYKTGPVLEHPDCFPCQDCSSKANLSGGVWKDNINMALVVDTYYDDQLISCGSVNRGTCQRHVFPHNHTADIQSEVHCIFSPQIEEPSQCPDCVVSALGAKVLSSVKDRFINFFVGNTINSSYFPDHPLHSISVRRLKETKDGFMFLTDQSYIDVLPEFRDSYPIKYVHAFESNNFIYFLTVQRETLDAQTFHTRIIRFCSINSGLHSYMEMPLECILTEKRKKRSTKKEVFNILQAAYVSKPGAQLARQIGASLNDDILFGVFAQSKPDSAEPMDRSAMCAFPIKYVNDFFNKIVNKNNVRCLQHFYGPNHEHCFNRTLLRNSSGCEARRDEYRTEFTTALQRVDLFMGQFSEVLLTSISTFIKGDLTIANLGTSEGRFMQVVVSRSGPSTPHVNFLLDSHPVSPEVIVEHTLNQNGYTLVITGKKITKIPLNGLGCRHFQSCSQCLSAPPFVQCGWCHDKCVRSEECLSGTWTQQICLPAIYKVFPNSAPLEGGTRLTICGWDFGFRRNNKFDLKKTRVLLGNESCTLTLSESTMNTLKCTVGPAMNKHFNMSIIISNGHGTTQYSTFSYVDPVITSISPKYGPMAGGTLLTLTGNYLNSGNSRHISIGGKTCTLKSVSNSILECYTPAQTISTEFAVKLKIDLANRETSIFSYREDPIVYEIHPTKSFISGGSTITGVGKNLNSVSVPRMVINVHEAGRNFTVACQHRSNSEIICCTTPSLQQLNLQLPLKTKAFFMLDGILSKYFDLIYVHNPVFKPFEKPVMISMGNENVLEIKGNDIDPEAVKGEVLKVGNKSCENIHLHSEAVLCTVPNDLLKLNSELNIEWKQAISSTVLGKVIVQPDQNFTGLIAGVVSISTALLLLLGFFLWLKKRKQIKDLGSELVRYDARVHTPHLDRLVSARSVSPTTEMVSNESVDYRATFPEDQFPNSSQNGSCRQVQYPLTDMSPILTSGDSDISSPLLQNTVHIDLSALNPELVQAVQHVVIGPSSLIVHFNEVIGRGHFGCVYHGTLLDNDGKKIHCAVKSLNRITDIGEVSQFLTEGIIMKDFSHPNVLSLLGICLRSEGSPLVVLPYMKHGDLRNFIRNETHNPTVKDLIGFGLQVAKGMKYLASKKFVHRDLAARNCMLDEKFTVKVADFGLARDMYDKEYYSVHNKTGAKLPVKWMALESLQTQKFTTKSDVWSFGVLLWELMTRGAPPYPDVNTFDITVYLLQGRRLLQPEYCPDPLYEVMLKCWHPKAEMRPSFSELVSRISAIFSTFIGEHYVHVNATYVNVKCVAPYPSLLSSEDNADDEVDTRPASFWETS
How it was run: as §2

[6] = molecular target: T6, EGFR (Homo sapiens, UniProt P00533); test: Kinase inhibition assay (33P transfer), EGFR; conditions: Table 2, kinase inhibition class; read-out: EGFR-1
T6 construct: Kinases are expressed as either kinase domains or full length constructs; made in house
How it was run: as §2

[7] = molecular target: T7, Itk (Homo sapiens, UniProt Q08881); test: Kinase inhibition assay (33P transfer), Itk; conditions: Table 3; read-out: Itk-1
T7 construct: Kinases are expressed as either kinase domains or full length constructs; made in house
T7 sequence (Q08881 1-620): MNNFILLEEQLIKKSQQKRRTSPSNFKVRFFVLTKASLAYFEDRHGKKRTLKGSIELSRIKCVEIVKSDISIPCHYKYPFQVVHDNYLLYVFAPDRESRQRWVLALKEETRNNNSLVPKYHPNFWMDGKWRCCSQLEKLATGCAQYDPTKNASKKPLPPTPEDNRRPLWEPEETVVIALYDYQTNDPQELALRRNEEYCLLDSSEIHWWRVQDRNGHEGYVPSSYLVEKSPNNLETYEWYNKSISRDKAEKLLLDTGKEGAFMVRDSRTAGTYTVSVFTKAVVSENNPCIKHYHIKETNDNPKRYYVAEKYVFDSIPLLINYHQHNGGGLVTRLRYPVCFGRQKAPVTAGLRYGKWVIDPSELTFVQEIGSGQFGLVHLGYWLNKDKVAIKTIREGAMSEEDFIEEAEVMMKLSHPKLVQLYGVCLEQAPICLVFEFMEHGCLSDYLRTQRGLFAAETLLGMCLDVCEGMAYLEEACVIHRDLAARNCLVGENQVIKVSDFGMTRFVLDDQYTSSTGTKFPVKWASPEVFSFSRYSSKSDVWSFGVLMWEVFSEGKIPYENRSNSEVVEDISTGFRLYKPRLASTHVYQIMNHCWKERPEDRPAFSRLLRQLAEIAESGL
How it was run: as §2

[8] = molecular target: T8, Lck (Homo sapiens, UniProt P06239); test: Kinase inhibition assay (33P transfer), Lck; conditions: Table 3; read-out: Lck-1
T8 construct: Kinases are expressed as either kinase domains or full length constructs; made in house
T8 sequence (P06239 whole entry, species assumed, the tested form may be a part): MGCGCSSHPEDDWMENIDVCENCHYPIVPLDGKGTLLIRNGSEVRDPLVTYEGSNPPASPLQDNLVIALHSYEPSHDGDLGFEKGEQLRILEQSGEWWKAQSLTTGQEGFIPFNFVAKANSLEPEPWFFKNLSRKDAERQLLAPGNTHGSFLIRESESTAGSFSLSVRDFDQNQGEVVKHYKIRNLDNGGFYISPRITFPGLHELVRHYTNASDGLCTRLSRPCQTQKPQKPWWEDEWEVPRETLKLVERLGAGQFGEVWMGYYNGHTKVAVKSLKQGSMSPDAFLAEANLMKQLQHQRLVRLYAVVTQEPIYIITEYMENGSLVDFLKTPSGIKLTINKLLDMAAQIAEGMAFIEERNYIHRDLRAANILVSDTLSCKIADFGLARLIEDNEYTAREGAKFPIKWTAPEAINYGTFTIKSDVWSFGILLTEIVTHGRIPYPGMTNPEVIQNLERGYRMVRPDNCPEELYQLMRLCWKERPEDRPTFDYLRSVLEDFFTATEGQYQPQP
How it was run: as §1

[9] = molecular target: T9, AKT (Homo sapiens, UniProt Q9Y243); test: Kinase inhibition assay (33P transfer), AKT; conditions: Table 2, kinase inhibition class; read-out: AKT3-1
T9 construct: Kinases are expressed as either kinase domains or full length constructs; made in house
T9 sequence (Q9Y243 whole entry, the tested form may be a part): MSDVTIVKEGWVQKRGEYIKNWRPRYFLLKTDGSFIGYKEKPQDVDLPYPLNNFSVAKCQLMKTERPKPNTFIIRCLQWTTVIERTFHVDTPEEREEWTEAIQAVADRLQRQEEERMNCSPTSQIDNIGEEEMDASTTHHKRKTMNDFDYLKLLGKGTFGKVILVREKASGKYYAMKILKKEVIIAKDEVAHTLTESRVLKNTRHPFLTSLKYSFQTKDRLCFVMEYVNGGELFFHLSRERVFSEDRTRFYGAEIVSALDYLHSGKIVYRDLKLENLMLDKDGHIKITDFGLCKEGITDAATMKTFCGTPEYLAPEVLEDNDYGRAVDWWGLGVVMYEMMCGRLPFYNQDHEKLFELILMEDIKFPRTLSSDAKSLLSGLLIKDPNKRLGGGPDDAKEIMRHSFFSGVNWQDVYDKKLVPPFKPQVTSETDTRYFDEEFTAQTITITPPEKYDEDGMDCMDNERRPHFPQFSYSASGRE
How it was run: as §1

| Structure (SMILES) | IC50 [1] | IC50 [2] [µM] | IC50 [3] [µM] | IC50 [4] [µM] | IC50 [5] [µM] | IC50 [6] | IC50 [7] [µM] | IC50 [8] | IC50 [9] [µM] |
| --- | --- | --- | --- | --- | --- | --- | --- | --- | --- |
| Oc1ccc(Nc2ncnc(-c3ccccc3)n2)cc1 [Compound 11] | 1.51 to 9.08 µM | > 17 | > 17 | > 17 | > 17 | > 17 µM | > 17 | 9.08 to 13.2 µM | > 17 |
| COc1ccccc1Nc1ncnc(-c2ccccc2)n1 [Compound 12] | 12.6 to 16.2 µM | > 16.2 | > 16.2 | > 16.2 | > 16.2 | > 16.2 µM | > 16.2 | > 16.2 µM | > 16.2 |
| COc1cccc(Nc2ncnc(-c3ccccc3)n2)c1 [Compound 13] | > 16.2 µM | > 16.2 | > 16.2 | > 16.2 | > 16.2 | > 16.2 µM | > 16.2 | > 16.2 µM | > 16.2 |
| COc1ccc(Nc2ncnc(-c3ccccc3)n2)cc1 [Compound 14] | > 16.2 µM | > 16.2 | > 16.2 | 12.6 to 16.2 | > 16.2 | > 16.2 µM | > 16.2 | > 16.2 µM | > 16.2 |
| COc1cc(Nc2ncnc(-c3ccccc3)n2)cc(OC)c1 [Compound 15] | > 14.6 µM | > 14.6 | > 14.6 | 11.4 to 14.6 | > 14.6 | > 14.6 µM | > 14.6 | > 14.6 µM | > 14.6 |
| Oc1cccc(Nc2ncnc(-c3ccccc3)n2)c1 [Compound 18] | 9.08 to 13.2 µM | > 17 | > 17 | > 17 | > 17 | > 17 µM | > 17 | 9.08 to 13.2 µM | > 17 |
| CC(C)(C)OC(=O)Nc1ccc(Nc2ncnc(-c3ccccc3)n2)cc1 [Compound 19] | 6.6 to 9.63 µM | > 12.4 | 6.6 to 9.63 | 6.6 to 9.63 | > 12.4 | > 12.4 µM | > 12.4 | > 12.4 µM | > 12.4 |
| COc1ccc(Nc2ncnc(-c3cccs3)n2)cc1OC [Compound 357] | > 14.3 µM | – | > 14.3 | > 14.3 | > 14.3 | > 14.3 µM | > 14.3 | > 14.3 µM | > 14.3 |
| NC(=O)c1cccc(Nc2ncnc(-c3cccs3)n2)c1 [Compound 358] | > 15.1 µM | – | > 15.1 | > 15.1 | > 15.1 | > 15.1 µM | > 15.1 | > 15.1 µM | > 15.1 |
| COc1cc(C)c(Nc2ncnc(-c3cccs3)n2)cc1OC [Compound 359] | > 13.7 µM | – | > 13.7 | > 13.7 | > 13.7 | > 13.7 µM | > 13.7 | > 13.7 µM | > 13.7 |
| Clc1cccc(Nc2ncnc(-c3cccs3)n2)c1 [Compound 360] | > 15.6 µM | – | > 15.6 | > 15.6 | > 15.6 | > 15.6 µM | > 15.6 | > 15.6 µM | > 15.6 |
| c1ccc(COc2cccc(Nc3ncnc(-c4cccs4)n3)c2)cc1 [Compound 361] | > 12.5 µM | – | > 12.5 | > 12.5 | > 12.5 | > 12.5 µM | > 12.5 | > 12.5 µM | > 12.5 |
| COc1cccc(Nc2ncnc(-c3cccs3)n2)n1 [Compound 362] | > 15.8 µM | – | > 15.8 | > 15.8 | > 15.8 | > 15.8 µM | > 15.8 | > 15.8 µM | > 15.8 |
| c1csc(-c2ncnc(Nc3ccncc3)n2)c1 [Compound 363] | > 17.6 µM | – | > 17.6 | > 17.6 | > 17.6 | > 17.6 µM | > 17.6 | > 17.6 µM | > 17.6 |
| COc1cc(Nc2ncnc(-n3c(NCCO)nc4ccccc43)n2)cc(OC)c1OC [Compound 391] | 0.914 to 5.49 µM | – | > 10.3 | > 10.3 | > 10.3 | > 10.3 µM | > 10.3 | 8 to 10.3 µM | > 10.3 |
| COc1cc(Nc2ncnc(-n3c(NCCCCO)nc4ccccc43)n2)cc(OC)c1OC [Compound 392] | 0.859 to 5.16 µM | – | > 9.67 | > 9.67 | > 9.67 | > 9.67 µM | > 9.67 | 5.16 to 7.52 µM | > 9.67 |
| COc1cc(Nc2ncnc(Nc3cc(C)nn3C)n2)cc(OC)c1OC [Compound 393] | > 12.1 µM and 6.46 to 9.42 µM | – | > 12.1 | > 12.1 | > 12.1 | 9.42 to 12.1 µM and > 12.1 µM | > 12.1 | 1.08 to 6.46 µM and > 12.1 µM | > 12.1 |
| COc1cc(Nc2ncnc(Cl)n2)cc(OC)c1OC [Compound 924, 2-chloro-4-(3′,4′,5′-trimethoxyanilino)-1,3,5-triazine] | 1.35 to 8.09 µM | – | > 15.2 | > 15.2 | > 15.2 | > 15.2 µM | > 15.2 | > 15.2 µM | > 15.2 |
| COc1cc(Nc2ncnc(N)n2)cc(OC)c1OC [Compound 925] | > 16.2 µM | – | > 16.2 | > 16.2 | > 16.2 | > 16.2 µM | > 16.2 | 1.44 to 8.66 µM | > 16.2 |
| OCCCNc1ncnc(-c2ccccc2)n1 [Compound 971] | > 19.5 µM | – | > 19.5 | > 19.5 | > 19.5 | > 19.5 µM | > 19.5 | > 19.5 µM | > 19.5 |
| NC(=O)c1ccc(Nc2ncnc(-c3ccccc3)n2)cc1 [Compound 1028] | > 15.4 µM | – | > 15.4 | > 15.4 | > 15.4 | > 15.4 µM | > 15.4 | > 15.4 µM | > 15.4 |
| Nc1nc2ccccc2n1-c1ncnc(Cl)n1 [Compound 1029] | 14.2 to 18.2 µM | – | > 18.2 | 9.73 to 14.2 | > 18.2 | > 18.2 µM | > 18.2 | > 18.2 µM | > 18.2 |
| c1csc(-c2ncnc(Nc3ccc4c(c3)OCO4)n2)c1 [Compound 1072] | 8.04 to 11.7 µM | – | > 15.1 | > 15.1 | 11.7 to 15.1 | > 15.1 µM | > 15.1 | > 15.1 µM | > 15.1 |
| Fc1cccc(Nc2ncnc(-c3cccs3)n2)c1 [Compound 1073] | > 16.5 µM | – | > 16.5 | > 16.5 | > 16.5 | > 16.5 µM | > 16.5 | > 16.5 µM | > 16.5 |
